Data from paper PMC9986241 (Signal Transduction and Targeted Therapy, 2023).
Blank lines part the entries; values can stand above or below the molecule they belong to.

Tests used:
Assay in all cases: KinaseProfiler enzyme profiling
Format in all cases: biochemical
IKKβ(h) = target: T1, IKKβ(h) (Homo sapiens, UniProt O14920)
T1 construct: purchased Eurofins KinaseProfiler
Procedure: (§1) Enzyme profiling services were provided by KinaseProfiler™ (Eurofin, Brussels, Belgium). The concentration of erianin was 100 nM, and total 70 kinases were tested in this in vitro screening and profiling services (2 repetitions). For more details, refer to the manufacturer’s instructions (www.eurofinsdiscoveryservices.com).

AMPKα2(h) = target: T2, AMPKα2(h) (Homo sapiens, UniProt P54646)
T2 construct: purchased Eurofins KinaseProfiler
Procedure: as §1

B-Raf(V599E)(h) = target: T3, B-Raf(V599E)(h) (Homo sapiens, UniProt P15056, V600E)
T3 construct: purchased Eurofins KinaseProfiler
Procedure: as §1

PAK4(h) = target: T4, PAK4(h) (Homo sapiens, UniProt O96013)
T4 construct: purchased Eurofins KinaseProfiler
T4 sequence (O96013 whole entry): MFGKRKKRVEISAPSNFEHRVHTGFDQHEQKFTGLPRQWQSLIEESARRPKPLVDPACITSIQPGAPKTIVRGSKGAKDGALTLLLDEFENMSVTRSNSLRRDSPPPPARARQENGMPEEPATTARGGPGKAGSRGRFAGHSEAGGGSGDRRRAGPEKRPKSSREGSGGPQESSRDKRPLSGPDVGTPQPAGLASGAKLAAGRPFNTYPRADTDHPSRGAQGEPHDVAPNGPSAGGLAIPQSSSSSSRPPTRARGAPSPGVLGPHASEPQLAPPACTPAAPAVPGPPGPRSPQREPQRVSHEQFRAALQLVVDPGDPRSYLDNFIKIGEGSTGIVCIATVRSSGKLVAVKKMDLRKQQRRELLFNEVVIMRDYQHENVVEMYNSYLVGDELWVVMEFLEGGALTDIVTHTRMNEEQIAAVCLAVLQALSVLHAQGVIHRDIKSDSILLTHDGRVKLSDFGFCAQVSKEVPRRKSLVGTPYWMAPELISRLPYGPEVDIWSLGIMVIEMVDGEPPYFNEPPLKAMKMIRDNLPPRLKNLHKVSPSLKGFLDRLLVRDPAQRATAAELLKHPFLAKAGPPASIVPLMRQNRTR
Procedure: as §1

PAK1(h) = target: T5, PAK1(h) (Homo sapiens, UniProt Q13153)
T5 construct: purchased Eurofins KinaseProfiler
T5 sequence (Q13153 whole entry): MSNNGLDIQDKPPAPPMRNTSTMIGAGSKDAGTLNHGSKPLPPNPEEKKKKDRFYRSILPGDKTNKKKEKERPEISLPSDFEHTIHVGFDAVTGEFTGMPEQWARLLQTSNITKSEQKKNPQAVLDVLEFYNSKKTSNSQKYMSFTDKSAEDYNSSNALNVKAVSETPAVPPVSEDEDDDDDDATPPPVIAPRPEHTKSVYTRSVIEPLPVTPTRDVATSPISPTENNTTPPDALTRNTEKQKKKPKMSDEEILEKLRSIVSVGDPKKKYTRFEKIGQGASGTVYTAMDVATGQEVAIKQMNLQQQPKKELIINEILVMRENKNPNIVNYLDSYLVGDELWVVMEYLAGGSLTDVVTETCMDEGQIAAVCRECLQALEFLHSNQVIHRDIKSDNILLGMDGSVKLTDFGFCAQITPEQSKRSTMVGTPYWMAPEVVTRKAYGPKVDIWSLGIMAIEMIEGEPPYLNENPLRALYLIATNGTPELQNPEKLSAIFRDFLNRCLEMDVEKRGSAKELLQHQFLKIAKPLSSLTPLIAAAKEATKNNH
Procedure: as §1

MAPK2(h) = target: T6, MAPK2(h) (Homo sapiens, UniProt P28482)
T6 construct: purchased Eurofins KinaseProfiler
T6 sequence (P28482 whole entry): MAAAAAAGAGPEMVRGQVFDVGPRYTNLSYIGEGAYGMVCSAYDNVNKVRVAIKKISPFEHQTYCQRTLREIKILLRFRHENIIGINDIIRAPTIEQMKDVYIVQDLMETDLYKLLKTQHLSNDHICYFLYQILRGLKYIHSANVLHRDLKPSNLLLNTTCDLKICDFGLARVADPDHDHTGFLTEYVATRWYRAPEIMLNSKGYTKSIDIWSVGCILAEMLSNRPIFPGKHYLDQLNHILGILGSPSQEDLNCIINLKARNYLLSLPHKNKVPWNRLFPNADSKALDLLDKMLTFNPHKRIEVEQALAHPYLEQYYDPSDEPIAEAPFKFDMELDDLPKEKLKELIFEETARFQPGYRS
Procedure: as §1

MAPK1(h) = target: T7, MAPK1(h) (Homo sapiens, UniProt P27361)
T7 construct: purchased Eurofins KinaseProfiler
T7 sequence (P27361 whole entry): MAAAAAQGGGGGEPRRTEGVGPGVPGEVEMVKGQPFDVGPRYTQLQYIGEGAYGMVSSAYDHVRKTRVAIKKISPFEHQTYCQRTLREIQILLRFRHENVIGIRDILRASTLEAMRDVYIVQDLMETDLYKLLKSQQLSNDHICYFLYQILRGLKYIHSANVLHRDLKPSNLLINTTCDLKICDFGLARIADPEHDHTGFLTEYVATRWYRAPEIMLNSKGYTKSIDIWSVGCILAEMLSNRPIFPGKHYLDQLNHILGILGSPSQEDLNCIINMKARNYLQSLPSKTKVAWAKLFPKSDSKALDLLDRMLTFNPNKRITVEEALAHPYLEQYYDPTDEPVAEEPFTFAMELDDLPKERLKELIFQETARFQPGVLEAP
Procedure: as §1

IKKα(h) = target: T8, IKKα(h) (Homo sapiens, UniProt O15111)
T8 construct: purchased Eurofins KinaseProfiler
T8 sequence (O15111 1-745): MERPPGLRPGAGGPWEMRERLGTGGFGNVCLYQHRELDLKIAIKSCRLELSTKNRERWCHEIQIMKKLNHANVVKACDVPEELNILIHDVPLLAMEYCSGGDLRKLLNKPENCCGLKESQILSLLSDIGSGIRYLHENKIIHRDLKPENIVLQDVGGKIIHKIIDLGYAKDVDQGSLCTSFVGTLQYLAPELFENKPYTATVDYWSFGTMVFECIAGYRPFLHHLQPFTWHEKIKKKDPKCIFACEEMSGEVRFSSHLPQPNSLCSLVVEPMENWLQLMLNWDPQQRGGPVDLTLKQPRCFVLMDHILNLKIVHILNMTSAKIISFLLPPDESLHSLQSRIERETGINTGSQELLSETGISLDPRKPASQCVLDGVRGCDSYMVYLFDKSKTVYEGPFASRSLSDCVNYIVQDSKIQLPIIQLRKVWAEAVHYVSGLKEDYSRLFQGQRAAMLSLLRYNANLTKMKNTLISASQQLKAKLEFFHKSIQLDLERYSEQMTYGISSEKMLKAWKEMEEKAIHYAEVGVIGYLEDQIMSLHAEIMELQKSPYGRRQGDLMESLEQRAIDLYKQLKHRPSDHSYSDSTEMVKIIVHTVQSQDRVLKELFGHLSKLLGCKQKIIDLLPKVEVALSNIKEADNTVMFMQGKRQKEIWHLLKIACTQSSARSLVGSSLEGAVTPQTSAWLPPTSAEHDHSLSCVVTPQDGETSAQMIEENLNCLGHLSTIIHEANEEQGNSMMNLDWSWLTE
Procedure: as §1

JAK2(h) = target: T9, JAK2(h) (Homo sapiens, UniProt O60674)
T9 construct: purchased Eurofins KinaseProfiler
Procedure: as §1

CDK2/cyclinA(h) = target: T10, CDK2/cyclinA(h) (Homo sapiens, UniProt P24941)
T10 construct: purchased Eurofins KinaseProfiler
Procedure: as §1

MEK1(h) = target: T11, MEK1(h) (Homo sapiens, UniProt Q02750)
T11 construct: purchased Eurofins KinaseProfiler
T11 sequence (Q02750 whole entry): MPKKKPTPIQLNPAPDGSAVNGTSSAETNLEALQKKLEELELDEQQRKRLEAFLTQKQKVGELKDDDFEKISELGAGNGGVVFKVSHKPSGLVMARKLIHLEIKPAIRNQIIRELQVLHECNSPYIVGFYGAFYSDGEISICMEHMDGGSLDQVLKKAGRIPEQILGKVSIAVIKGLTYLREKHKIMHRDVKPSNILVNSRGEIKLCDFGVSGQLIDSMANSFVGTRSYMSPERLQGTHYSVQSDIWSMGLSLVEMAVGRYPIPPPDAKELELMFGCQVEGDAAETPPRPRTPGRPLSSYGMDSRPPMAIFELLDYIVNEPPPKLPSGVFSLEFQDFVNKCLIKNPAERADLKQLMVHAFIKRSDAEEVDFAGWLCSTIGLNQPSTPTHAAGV
Procedure: as §1

EphB4(h) = target: T12, EphB4(h) (Homo sapiens, UniProt P54760)
T12 construct: purchased Eurofins KinaseProfiler
Procedure: as §1

CDK4/cyclinD3(h) = target: T13, CDK4/cyclinD3(h) (Homo sapiens, UniProt P11802)
T13 construct: purchased Eurofins KinaseProfiler
T13 sequence (P11802 whole entry): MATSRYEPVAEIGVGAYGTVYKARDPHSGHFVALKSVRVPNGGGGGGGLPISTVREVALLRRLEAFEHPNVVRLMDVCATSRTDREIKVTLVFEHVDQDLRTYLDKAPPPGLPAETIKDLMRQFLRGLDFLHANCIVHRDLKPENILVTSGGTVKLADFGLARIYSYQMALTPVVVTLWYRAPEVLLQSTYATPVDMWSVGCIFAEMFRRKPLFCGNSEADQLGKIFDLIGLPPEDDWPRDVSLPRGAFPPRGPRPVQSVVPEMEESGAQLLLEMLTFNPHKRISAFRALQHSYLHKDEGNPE
T13 sequence (P30281 whole entry partner): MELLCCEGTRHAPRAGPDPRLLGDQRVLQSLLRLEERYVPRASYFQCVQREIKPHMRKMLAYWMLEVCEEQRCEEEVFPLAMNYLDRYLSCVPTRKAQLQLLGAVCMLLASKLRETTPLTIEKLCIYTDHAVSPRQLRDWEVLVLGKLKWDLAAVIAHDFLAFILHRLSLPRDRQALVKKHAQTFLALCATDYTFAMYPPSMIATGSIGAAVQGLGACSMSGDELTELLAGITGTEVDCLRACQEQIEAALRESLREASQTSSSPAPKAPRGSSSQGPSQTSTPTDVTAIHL
Procedure: as §1

FGFR1(h) = target: T14, FGFR1(h) (Homo sapiens, UniProt P11362)
T14 construct: purchased Eurofins KinaseProfiler
Procedure: as §1

PDGFRβ(h) = target: T15, PDGFRβ(h) (Homo sapiens, UniProt P09619)
T15 construct: purchased Eurofins KinaseProfiler
Procedure: as §1

ROCK-II(h) = target: T16, ROCK-II(h) (Homo sapiens, UniProt O75116)
T16 construct: purchased Eurofins KinaseProfiler
Procedure: as §1

PKBβ(h) = target: T17, PKBβ(h) (Homo sapiens, UniProt P31751)
T17 construct: purchased Eurofins KinaseProfiler
Procedure: as §1

CDK9/cyclin T1(h) = target: T18, CDK9/cyclin T1(h) (Homo sapiens, UniProt P50750)
T18 construct: purchased Eurofins KinaseProfiler
T18 sequence (P50750 whole entry): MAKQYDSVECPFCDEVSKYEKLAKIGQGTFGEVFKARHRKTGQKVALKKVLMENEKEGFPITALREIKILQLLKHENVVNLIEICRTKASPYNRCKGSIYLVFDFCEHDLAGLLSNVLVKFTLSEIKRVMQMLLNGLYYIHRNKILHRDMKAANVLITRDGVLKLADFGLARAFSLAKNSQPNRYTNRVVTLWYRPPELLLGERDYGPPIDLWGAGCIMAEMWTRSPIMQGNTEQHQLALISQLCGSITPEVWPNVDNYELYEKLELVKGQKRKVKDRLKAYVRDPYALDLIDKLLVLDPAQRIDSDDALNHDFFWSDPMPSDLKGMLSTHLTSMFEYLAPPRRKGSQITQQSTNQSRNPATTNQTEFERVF
T18 sequence (O60563 whole entry partner): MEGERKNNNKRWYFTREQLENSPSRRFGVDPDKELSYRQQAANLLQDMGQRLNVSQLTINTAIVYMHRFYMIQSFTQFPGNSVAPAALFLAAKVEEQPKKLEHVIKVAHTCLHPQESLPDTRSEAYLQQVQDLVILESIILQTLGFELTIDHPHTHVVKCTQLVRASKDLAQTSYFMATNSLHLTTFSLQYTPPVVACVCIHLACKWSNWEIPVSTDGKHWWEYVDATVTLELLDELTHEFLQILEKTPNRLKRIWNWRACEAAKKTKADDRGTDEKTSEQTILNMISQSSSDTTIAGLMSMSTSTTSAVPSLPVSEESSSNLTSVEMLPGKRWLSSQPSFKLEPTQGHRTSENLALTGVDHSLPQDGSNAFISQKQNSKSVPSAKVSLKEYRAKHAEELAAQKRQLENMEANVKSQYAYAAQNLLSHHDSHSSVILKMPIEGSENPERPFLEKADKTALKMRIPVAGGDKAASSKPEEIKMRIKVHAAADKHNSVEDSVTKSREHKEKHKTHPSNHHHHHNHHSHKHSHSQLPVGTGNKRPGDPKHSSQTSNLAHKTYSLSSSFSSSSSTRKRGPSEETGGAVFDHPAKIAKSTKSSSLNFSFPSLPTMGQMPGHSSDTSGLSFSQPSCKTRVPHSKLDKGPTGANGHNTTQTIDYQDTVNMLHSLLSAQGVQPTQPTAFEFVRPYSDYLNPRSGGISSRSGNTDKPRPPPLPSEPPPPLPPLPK
Procedure: as §1

JAK3(h) = target: T19, JAK3(h) (Homo sapiens, UniProt P52333)
T19 construct: purchased Eurofins KinaseProfiler
Procedure: as §1

mTOR(h) = target: T20, mTOR(h) (Homo sapiens, UniProt P42345)
T20 construct: purchased Eurofins KinaseProfiler
Procedure: as §1

EGFR(h) = target: T21, EGFR(h) (Homo sapiens, UniProt P00533)
T21 construct: purchased Eurofins KinaseProfiler
Procedure: as §1

JNK3(h) = target: T22, JNK3(h) (Homo sapiens, UniProt P53779)
T22 construct: purchased Eurofins KinaseProfiler
T22 sequence (P53779 whole entry): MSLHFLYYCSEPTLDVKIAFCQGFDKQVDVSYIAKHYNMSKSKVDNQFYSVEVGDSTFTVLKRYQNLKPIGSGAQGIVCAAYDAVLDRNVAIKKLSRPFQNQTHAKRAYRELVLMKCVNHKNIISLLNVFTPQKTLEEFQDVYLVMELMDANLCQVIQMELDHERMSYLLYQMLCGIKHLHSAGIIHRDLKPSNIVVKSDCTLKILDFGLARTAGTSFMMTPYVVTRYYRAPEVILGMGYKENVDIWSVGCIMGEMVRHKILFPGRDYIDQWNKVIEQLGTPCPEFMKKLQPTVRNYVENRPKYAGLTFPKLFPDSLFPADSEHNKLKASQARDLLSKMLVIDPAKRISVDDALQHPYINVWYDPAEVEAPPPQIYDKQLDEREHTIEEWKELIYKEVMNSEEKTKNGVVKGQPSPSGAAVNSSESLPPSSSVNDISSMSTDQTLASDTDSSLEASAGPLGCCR
Procedure: as §1

EGFR(L861Q)(h) = target: T23, EGFR(L861Q)(h) (Homo sapiens, UniProt P00533, L861Q)
T23 construct: purchased Eurofins KinaseProfiler
Procedure: as §1

PAK2(h) = target: T24, PAK2(h) (Homo sapiens, UniProt Q13177)
T24 construct: purchased Eurofins KinaseProfiler
T24 sequence (Q13177 whole entry): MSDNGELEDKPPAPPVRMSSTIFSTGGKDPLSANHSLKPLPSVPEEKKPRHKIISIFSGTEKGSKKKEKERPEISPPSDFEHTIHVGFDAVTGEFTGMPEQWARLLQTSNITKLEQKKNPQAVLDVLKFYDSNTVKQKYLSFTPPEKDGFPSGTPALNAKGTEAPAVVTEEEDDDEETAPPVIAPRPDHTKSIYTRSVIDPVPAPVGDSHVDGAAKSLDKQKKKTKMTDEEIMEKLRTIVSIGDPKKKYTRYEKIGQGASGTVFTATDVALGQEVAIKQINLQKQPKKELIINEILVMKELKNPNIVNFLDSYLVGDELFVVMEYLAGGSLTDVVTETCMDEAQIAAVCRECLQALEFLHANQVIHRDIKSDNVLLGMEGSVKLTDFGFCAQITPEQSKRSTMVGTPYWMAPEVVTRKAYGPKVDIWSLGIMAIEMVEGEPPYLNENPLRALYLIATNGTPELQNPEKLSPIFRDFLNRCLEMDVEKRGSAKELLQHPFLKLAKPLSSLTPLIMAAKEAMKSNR
Procedure: as §1

PKBα(h) = target: T25, PKBα(h) (Homo sapiens, UniProt P31749)
T25 construct: purchased Eurofins KinaseProfiler
Procedure: as §1

PAK3(h) = target: T26, PAK3(h) (Homo sapiens, UniProt O75914)
T26 construct: purchased Eurofins KinaseProfiler
Procedure: as §1

PKCα(h) = target: T27, PKCα(h) (Homo sapiens, UniProt P17252)
T27 construct: purchased Eurofins KinaseProfiler
Procedure: as §1

JAK1(h) = target: T28, JAK1(h) (Homo sapiens, UniProt P23458)
T28 construct: purchased Eurofins KinaseProfiler
Procedure: as §1

MSK1(h) = target: T29, MSK1(h) (Homo sapiens, UniProt O75582)
T29 construct: purchased Eurofins KinaseProfiler
Procedure: as §1

CDK6/cyclinD3(h) = target: T30, CDK6/cyclinD3(h) (Homo sapiens, UniProt Q00534)
T30 construct: purchased Eurofins KinaseProfiler
Procedure: as §1

MST3(h) = target: T31, MST3(h) (Homo sapiens, UniProt Q9Y6E0)
T31 construct: purchased Eurofins KinaseProfiler
Procedure: as §1

CDK3/cyclinE(h) = target: T32, CDK3/cyclinE(h) (Homo sapiens, UniProt Q00526)
T32 construct: purchased Eurofins KinaseProfiler
Procedure: as §1

SMILES: COc1ccc(CCc2cc(OC)c(OC)c(OC)c2)cc1O [Erianin]
activity at 0.1 µM (IKKβ(h)): 95% | activity at 0.1 µM (AMPKα2(h)): 118% | activity at 0.1 µM (B-Raf(V599E)(h)): 109% | activity at 0.1 µM (PAK4(h)): 93% | activity at 0.1 µM (PAK1(h)): 109% | activity at 0.1 µM (MAPK2(h)): 104% | activity at 0.1 µM (MAPK1(h)): 92% | activity at 0.1 µM (IKKα(h)): 108% | activity at 0.1 µM (JAK2(h)): 107% | activity at 0.1 µM (CDK2/cyclinA(h)): 94% | activity at 0.1 µM (MEK1(h)): 99% | activity at 0.1 µM (EphB4(h)): 108% | activity at 0.1 µM (CDK4/cyclinD3(h)): 105% | activity at 0.1 µM (FGFR1(h)): 118% | activity at 0.1 µM (PDGFRβ(h)): 133% | activity at 0.1 µM (ROCK-II(h)): 112% | activity at 0.1 µM (PKBβ(h)): 97% | activity at 0.1 µM (CDK9/cyclin T1(h)): 97% | activity at 0.1 µM (JAK3(h)): 98% | activity at 0.1 µM (mTOR(h)): 104% | activity at 0.1 µM (EGFR(h)): 105% | activity at 0.1 µM (JNK3(h)): 111% | activity at 0.1 µM (EGFR(L861Q)(h)): 93% | activity at 0.1 µM (PAK2(h)): 107% | activity at 0.1 µM (PKBα(h)): 105% | activity at 0.1 µM (PAK3(h)): 99% | activity at 0.1 µM (PKCα(h)): 89% | activity at 0.1 µM (JAK1(h)): 117%

activity at 10 µM (IKKβ(h); 10 µM): 105% | activity at 10 µM (MSK1(h)): 93% | activity at 10 µM (AMPKα2(h); 10 µM): 72% | activity at 10 µM (PAK4(h)): 86% | activity at 10 µM (PAK1(h)): 110% | activity at 10 µM (MAPK2(h)): 82% | activity at 10 µM (MAPK1(h)): 63% | activity at 10 µM (IKKα(h)): 80% | activity at 10 µM (JAK2(h); 10 µM): 90% | activity at 10 µM (CDK2/cyclinA(h)): 67% | activity at 10 µM (MEK1(h)): 92% | activity at 10 µM (CDK6/cyclinD3(h)): 69% | activity at 10 µM (CDK4/cyclinD3(h); 10 µM): 109% | activity at 10 µM (PDGFRβ(h); 10 µM): 94% | activity at 10 µM (ROCK-II(h); 10 µM): 88% | activity at 10 µM (PKBβ(h); 10 µM): 106% | activity at 10 µM (CDK9/cyclin T1(h)): 59% | activity at 10 µM (JAK3(h); 10 µM): 89% | activity at 10 µM (mTOR(h); 10 µM): 81% | activity at 10 µM (EGFR(h)): 91% | activity at 10 µM (JNK3(h); 10 µM): 54% | activity at 10 µM (PAK2(h)): 99% | activity at 10 µM (MST3(h)): 74% | activity at 10 µM (PKBα(h); 10 µM): 90% | activity at 10 µM (CDK3/cyclinE(h)): 70% | activity at 10 µM (PAK3(h); 10 µM): 95% | activity at 10 µM (PKCα(h); 10 µM): 69% | activity at 10 µM (JAK1(h)): 75%
SMILES: C=C1C(=O)[C@]23[C@H](O)[C@H]1CC[C@H]2[C@@]12CO[C@]3(O)[C@@H](O)[C@@H]1C(C)(C)CC[C@@H]2O [Oridonin]

activity at 10 µM (MSK1(h)): 106% | activity at 10 µM (B-Raf(V599E)(h); 10 µM): 106% | activity at 10 µM (PAK4(h)): 104% | activity at 10 µM (PAK1(h)): 104% | activity at 10 µM (MAPK2(h)): 114% | activity at 10 µM (MAPK1(h)): 103% | activity at 10 µM (IKKα(h)): 102% | activity at 10 µM (CDK2/cyclinA(h)): 91% | activity at 10 µM (MEK1(h)): 105% | activity at 10 µM (EphB4(h); 10 µM): 86% | activity at 10 µM (CDK6/cyclinD3(h)): 101% | activity at 10 µM (FGFR1(h); 10 µM): 103% | activity at 10 µM (CDK9/cyclin T1(h)): 98% | activity at 10 µM (EGFR(h)): 98% | activity at 10 µM (EGFR(L861Q)(h); 10 µM): 108% | activity at 10 µM (PAK2(h)): 111% | activity at 10 µM (MST3(h)): 103% | activity at 10 µM (CDK3/cyclinE(h)): 97% | activity at 10 µM (JAK1(h)): 99%
SMILES: COc1cc2oc(-c3ccc(O)c(O)c3)cc(=O)c2c(O)c1OC [Cirsiliol]
